Measurements taken from patent publication US20250296937A1, “CYCLIC BISBENZYL TETRAHYDROISOQUINOLINE COMPOUND, AND PREPARATION METHOD THEREFOR AND USE THEREOF” (Shanghai Institute of Materia Medica, Chinesse Academy of …, priority 2021, published 2025).
Entries after “also recorded” stand apart in the source; their conditions may differ.

Key:
[1] = test system: delta mutant strain of SARS-CoV-2; type: cell-based; details: for EC50: read-out: Inhibition against viral replication of delta mutant strain EC50
[2] = test system: South African mutant strain of SARS-CoV-2; type: cell-based; details: for EC50: read-out: Inhibition against viral replication of South African mutant strain EC50

Row | Structure (SMILES) | inhibition against the delta strain [1] | EC50 [1] | inhibition against the South African strain [2] | EC50 [2]
1 | CCCCNC(=O)Oc1ccc2cc1Oc1ccc(cc1)C[C@H]1c3c(cc(OC)c(OC)c3Oc3cc4c(cc3OC)CCN(C)[C@@H]4C2)CCN1C [Compound 2] | strong inhibition; also recorded: significantly inhibited | 0.3 µM |  | 
2 | COc1cc2c3cc1Oc1c(OC)c(OC)cc4c1[C@H](Cc1ccc(cc1)Oc1cc(ccc1C(N)=O)C[C@H]3N(C)CC2)N(C)CC4 [Compound 4] | strong inhibition; also recorded: significantly inhibited | 1.5 µM |  | 
3 | COc1cc2c3cc1Oc1c(OC)c(OC)cc4c1[C@H](Cc1ccc(cc1)Oc1cc(ccc1C(=O)NC1CC1)C[C@H]3N(C)CC2)N(C)CC4 [Compound 6] |  |  | strong inhibition; also recorded: significantly inhibited | 2.2 µM
4 | CNC(=O)c1ccc2cc1Oc1ccc(cc1)C[C@H]1c3c(cc(OC)c(OC)c3Oc3cc4c(cc3OC)CCN(C)[C@@H]4C2)CCN1C [Compound 5] |  |  | strong inhibition; also recorded: significantly inhibited | 2.7 µM
